Test results from ChEMBL document CHEMBL6153066, “Discovery of CZY43 as a new small-molecule degrader of pseudokinase HER3” (Eur J Med Chem, 2025).
pIC50: −log10 of the molar value. Active and inactive are the calls of the source. The rule behind the calls is not given here.

What was measured:
[1] = molecular target: T1, Receptor tyrosine-protein kinase erbB-3 (Homo sapiens, UniProt P21860); assay: Induction of hydrophobic tag-mediated HER3 degradation in human SK-BR-3 cells at 1 uM incubated for 8 hrs in presence of chloroquine by immunoblot analysis; format: cell-based
T1 sequence (P21860 whole entry): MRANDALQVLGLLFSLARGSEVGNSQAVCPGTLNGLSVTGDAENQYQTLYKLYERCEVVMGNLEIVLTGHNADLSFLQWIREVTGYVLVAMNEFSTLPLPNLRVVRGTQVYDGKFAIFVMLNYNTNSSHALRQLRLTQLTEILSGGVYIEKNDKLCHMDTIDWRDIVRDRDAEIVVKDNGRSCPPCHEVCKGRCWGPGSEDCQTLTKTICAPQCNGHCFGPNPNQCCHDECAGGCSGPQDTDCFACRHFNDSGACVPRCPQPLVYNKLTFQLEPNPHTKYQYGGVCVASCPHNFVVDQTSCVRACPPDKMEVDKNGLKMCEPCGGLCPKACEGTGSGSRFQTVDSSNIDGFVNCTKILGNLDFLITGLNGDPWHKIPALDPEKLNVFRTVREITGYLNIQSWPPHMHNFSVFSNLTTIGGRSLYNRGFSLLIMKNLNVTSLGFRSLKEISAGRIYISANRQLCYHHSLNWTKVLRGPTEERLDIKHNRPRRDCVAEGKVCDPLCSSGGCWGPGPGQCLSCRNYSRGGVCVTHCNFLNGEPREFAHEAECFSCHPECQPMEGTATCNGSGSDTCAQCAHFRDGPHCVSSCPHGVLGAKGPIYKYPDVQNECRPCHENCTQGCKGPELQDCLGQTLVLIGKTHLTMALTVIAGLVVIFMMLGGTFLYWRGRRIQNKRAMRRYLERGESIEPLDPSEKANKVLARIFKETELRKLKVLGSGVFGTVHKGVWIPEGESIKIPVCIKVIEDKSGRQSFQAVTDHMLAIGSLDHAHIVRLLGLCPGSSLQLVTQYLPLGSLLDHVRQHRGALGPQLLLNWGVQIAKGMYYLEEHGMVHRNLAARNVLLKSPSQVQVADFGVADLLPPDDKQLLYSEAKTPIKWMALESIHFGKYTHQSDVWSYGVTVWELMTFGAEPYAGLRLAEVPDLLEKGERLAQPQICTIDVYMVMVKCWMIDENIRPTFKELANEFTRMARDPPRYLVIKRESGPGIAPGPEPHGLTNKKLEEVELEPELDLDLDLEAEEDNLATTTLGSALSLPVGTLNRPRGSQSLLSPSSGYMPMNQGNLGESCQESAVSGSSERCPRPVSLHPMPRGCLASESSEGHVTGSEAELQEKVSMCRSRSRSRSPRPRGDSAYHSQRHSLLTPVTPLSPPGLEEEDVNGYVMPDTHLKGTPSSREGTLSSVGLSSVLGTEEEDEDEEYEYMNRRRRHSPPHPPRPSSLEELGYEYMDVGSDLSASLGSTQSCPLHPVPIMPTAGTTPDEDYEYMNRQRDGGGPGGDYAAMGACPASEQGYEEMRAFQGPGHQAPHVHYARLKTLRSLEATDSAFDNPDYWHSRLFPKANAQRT

[2] = molecular target: T1, Receptor tyrosine-protein kinase erbB-3; assay: Induction of hydrophobic tag-mediated HER3 degradation in human SK-BR-3 cells incubated for 8 hrs by immunoblot analysis; format: cell-based
SK-BR-3 [3] = assay: Inhibition of cell adhesion in human SK-BR-3 cells upto 2000 nM incubated for 8 hrs by crystal violet staining based analysis; format: functional
[4] = molecular target: T1, Receptor tyrosine-protein kinase erbB-3; assay: Induction of hydrophobic tag-mediated HER3 degradation in human SK-BR-3 cells at 1000 nM by immunoblot analysis; format: cell-based; conditions: time <= 24.0 hrs
[5] = molecular target: T1, Receptor tyrosine-protein kinase erbB-3; assay: Induction of hydrophobic tag-mediated HER3 degradation in human A549 cells upto 2000 nM incubated for 8 hrs by immunoblot analysis; format: cell-based
[6] = molecular target: T1, Receptor tyrosine-protein kinase erbB-3; assay: Induction of Hsp90 binding to HER3 in human SK-BR-3 cells at 1 uM incubated for 8 hrs by Co-IP method; format: cell-based
[7] = molecular target: T1, Receptor tyrosine-protein kinase erbB-3; assay: Induction of hydrophobic tag-mediated HER3 degradation in human SK-BR-3 cells assessed as decrease in HER3 level upto 2000 nM incubated for 8 hrs by immunoblot analysis; format: cell-based
[8] = molecular target: T1, Receptor tyrosine-protein kinase erbB-3; assay: Induction of hydrophobic tag-mediated HER3 degradation in human SK-BR-3 cells at 1 uM incubated for 8 hrs in presence of MG132 by immunoblot analysis; format: cell-based
SK-BR-3 [9] = assay: Antiproliferative activity against human SK-BR-3 cells incubated for 72 hrs by CCK8 assay; format: functional, cell-based; conditions: SK-BR-3, 72 h
[10] = molecular target: T1, Receptor tyrosine-protein kinase erbB-3; assay: Induction of HER3 ubiquitination in human SK-BR-3 cells at 1 uM incubated for 8 hrs by Co-IP method; format: cell-based
SK-BR-3 [11] = assay: Induction of autophagy in human SK-BR-3 cells assessed as increase in LC3B-II level upto 2 uM incubated for 8 hrs by Western blot analysis; format: functional, cell-based
[12] = molecular target: T1, Receptor tyrosine-protein kinase erbB-3; assay: Induction of hydrophobic tag-mediated HER3 degradation in human MDA-MB-453 cells upto 2000 nM incubated for 8 hrs by immunoblot analysis; format: cell-based
[13] = molecular target: T1, Receptor tyrosine-protein kinase erbB-3; assay: Induction of hydrophobic tag-mediated HER3 degradation in human SK-BR-3 cells assessed as decrease in p-AKT level upto 2000 nM incubated for 8 hrs by immunoblot analysis; format: cell-based

For COc1cc(Nc2c(C#N)cnc3cc(OCCCN4CCC5(CC4)CCN(CCC46C[C@H]7C[C@@H](C4)C[C@@H](C6)C7)CC5)c(OC)cc23)c(Cl)cc1Cl, which Activity [1] is on record?
Its Activity is “inactive”.

And the DC50 [2]?
The DC50 was 559 nM.

And the Activity ([2]; dose <= 2000.0 nM)?
The Activity was “Dose-dependent-effect”.

What about the inhibition (SK-BR-3 [3]) of the same compound?
Its inhibition is “Active”.

What about the Activity [4] of the same compound?
Its Activity is “Time-dependent-effect”.

And the Activity [5]?
Its Activity is “Active”.

What about the Activity [6] of the same compound?
Its Activity is “Active”.

And the Activity [7]?
Its Activity is “Active; Exhibited As More Potent Than Bosutinib”.

What about the Activity [8] of the same compound?
Its Activity is “Active”.

What about the pIC50 (SK-BR-3 [9]) of the same compound?
The pIC50 was 6.28.

And the Activity [10]?
Its Activity is “Active”.

What about the Activity (SK-BR-3 [11]) of the same compound?
Its Activity is “Active”.

And the Activity [12]?
The Activity was “Active”.

What about the Activity [13] of the same compound?
Its Activity is “Active; Exhibited As More Potent Than Bosutinib”.

How did the pIC50 (SK-BR-3 [9]) turn out when COc1cc(Nc2c(C#N)cnc3cc(OCCCN4CCN(C)CC4)c(OC)cc23)c(Cl)cc1Cl [BOSUTINIB] was run?
Its pIC50 is 5.29.
